Our source for the IC50 values is publication PMC6920136 (Redox Biology, 2019).

Usually IC50 stands for the concentration that inhibits the measured activity by half. A low value points to greater potency in that assay.

For one experiment, the target named is Duox2 (Homo sapiens, UniProt Q9NRD8). As to the kind of experiment: H2O2 synthesis assay in homogenates of HEK293T cells expressing Duox2/DuoxA2. Format: biochemical.
The next experiment addresses Duox1 (Homo sapiens, UniProt Q9NRD9). As to the kind of experiment: H2O2 synthesis assay in homogenates of HEK293T cells expressing Duox1/DuoxA1α. It is filed as biochemical.

Chain of Duox1 (Q9NRD9 22-1551): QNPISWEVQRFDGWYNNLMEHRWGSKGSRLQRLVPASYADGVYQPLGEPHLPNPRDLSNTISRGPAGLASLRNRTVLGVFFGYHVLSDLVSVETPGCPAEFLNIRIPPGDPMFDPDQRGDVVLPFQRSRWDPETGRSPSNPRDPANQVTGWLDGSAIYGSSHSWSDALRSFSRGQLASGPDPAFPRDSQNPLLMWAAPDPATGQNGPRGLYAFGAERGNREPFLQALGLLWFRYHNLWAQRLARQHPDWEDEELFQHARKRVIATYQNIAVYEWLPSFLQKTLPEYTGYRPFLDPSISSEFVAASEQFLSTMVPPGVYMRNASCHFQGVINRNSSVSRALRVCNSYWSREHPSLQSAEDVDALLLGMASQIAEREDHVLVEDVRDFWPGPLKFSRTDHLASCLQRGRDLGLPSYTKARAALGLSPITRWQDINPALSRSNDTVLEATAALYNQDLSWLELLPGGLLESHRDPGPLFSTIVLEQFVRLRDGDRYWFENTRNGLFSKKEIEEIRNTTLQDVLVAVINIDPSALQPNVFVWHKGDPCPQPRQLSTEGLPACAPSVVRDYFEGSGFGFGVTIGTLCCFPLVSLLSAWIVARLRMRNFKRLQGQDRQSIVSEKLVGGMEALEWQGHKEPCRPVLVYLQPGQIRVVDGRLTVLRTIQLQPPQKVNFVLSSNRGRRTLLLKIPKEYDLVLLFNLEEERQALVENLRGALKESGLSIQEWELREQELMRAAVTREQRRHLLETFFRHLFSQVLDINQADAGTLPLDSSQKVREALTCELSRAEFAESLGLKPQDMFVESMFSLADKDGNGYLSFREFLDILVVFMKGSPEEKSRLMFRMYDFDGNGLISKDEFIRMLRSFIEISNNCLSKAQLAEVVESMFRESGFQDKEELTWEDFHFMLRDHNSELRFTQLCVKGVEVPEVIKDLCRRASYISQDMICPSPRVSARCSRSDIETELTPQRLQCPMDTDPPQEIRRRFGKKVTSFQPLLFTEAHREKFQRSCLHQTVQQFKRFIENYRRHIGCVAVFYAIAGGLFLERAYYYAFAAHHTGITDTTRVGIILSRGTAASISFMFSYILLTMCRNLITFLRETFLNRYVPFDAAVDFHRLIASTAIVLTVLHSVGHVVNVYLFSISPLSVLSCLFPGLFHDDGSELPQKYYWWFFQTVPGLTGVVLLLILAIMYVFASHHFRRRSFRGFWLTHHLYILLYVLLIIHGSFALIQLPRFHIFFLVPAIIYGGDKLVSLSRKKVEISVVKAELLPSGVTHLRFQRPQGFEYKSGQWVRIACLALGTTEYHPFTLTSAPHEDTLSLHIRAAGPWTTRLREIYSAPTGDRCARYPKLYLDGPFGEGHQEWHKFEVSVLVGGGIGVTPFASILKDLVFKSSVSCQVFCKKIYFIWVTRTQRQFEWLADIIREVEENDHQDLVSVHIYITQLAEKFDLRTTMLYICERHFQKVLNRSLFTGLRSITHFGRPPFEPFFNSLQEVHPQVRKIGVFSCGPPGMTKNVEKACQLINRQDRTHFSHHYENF
Chain of Duox1 (Q1HG43 whole entry partner): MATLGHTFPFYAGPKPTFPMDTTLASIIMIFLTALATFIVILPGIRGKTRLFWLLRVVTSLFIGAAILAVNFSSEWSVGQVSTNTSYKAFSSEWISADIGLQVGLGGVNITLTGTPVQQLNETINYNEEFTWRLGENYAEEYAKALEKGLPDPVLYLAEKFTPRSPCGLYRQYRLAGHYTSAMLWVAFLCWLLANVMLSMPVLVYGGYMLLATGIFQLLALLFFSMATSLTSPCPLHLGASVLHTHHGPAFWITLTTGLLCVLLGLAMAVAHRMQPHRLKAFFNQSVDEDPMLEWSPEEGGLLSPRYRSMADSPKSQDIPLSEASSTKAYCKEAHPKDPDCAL
Chain of Duox2 (Q9NRD8 26-1548): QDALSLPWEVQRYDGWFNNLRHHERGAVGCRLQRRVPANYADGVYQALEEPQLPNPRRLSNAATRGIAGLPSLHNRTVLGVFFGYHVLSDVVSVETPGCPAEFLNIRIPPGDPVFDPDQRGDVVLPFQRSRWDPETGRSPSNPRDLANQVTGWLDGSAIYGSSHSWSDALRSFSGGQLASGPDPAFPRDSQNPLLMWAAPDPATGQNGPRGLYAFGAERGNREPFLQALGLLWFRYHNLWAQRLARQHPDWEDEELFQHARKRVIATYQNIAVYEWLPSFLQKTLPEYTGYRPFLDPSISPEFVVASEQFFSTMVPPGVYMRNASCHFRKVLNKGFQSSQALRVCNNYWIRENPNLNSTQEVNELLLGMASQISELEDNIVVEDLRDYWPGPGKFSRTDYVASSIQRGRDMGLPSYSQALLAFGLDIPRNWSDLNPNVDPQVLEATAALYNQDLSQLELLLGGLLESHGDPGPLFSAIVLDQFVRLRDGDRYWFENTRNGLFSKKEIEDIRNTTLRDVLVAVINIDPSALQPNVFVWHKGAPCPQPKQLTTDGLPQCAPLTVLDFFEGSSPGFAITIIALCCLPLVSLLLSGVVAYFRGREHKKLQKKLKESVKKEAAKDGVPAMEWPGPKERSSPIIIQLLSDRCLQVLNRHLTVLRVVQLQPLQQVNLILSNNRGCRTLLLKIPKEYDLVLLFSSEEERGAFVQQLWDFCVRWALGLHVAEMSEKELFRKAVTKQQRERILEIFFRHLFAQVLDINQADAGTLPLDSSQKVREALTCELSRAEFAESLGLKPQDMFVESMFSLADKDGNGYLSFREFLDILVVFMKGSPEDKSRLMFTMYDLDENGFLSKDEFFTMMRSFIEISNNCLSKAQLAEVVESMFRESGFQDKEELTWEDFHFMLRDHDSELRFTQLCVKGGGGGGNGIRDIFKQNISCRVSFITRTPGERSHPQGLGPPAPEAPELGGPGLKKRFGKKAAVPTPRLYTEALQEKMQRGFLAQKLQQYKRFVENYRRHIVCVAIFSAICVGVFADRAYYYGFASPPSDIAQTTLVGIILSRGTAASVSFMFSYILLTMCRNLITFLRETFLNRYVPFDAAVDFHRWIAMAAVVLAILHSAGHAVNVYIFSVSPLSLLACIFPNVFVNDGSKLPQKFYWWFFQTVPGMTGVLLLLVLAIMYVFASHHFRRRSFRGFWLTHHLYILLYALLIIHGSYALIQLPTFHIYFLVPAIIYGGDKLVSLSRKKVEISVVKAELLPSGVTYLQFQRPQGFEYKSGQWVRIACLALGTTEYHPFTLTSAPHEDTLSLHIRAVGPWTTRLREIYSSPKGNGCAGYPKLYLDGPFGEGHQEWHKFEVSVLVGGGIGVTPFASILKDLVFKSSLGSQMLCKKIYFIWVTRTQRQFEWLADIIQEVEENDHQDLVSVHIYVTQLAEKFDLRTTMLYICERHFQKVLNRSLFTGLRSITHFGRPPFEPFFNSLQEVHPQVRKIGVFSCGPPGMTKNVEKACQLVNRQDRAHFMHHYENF
Chain of Duox2 (Q1HG44 whole entry partner): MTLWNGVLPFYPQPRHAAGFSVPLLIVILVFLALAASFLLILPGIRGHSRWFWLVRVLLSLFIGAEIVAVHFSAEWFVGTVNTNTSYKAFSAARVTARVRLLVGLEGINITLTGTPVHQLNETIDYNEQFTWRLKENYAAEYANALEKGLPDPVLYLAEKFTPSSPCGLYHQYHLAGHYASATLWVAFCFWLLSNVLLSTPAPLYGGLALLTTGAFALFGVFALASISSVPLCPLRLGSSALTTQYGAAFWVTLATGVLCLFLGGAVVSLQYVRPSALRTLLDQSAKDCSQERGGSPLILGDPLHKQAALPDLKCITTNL

In the case of `N=C(N)Nc1nc2ccc(Cl)cc2[nH]1` [ClGBI, 5-chloro-2-guanidinobenzimidazole], the IC50 worked out at 110 µM against Duox2 and 140 µM at Duox1.
